Patent US12234288B2, “Immunogenic arginase 2 polypeptides” (IO Biotech ApS, priority 2018, dated 2025)

Test system: ARG2-specific T cells
Assay: ARG2-specific CD4+ T cell culture: IFNy ELISPOT and intracellular cytokine staining toward peptide or target cells
Type: cell-based, human
Conditions: for recognition of peptide-pulsed cells by ARG2-specific T cells: IFNy ELISPOT, FIG. 17A; for specificity of the ARG2-specific T cell culture to peptide: intracellular cytokine staining for TNFα and IFNy and IFNy ELISPOT, FIG. 16A/B
Procedure: ELISPOT assays with ARG2-specific T cells (effector cells) and various immune or cancer cells as target cells (target cells) were setup by placing 1-5×10^4 effector cells (as indicated) and 1-2.5×10^4 target cells (as indicated) in the bottom of an ELISPOT well. Peptide pulsing of target cells were performed by incubation of cells with 20 μM peptide for lhr followed by two washes to remove unbound peptide. These cells served as positive control. Effector cells plated without target cells served as negative control. All conditions were setup in triplicates or quadruplicates.
Intracellular staining of cell cultures was performed on PBMCs after one week of ARG2-derived peptide stimulation in vitro. For the assay, 9×10^5 PBMCs were re-stimulated with ARG2-derived peptides (or incubated with no peptide as a control) for 5 hours in the presence of BD GolgiPlug™ (added after the first hour of peptide stimulation). Stimulated cells were stained with fluorescently labeled antibodies for surface markers (CD3, CD4, CD8) and thereafter permeabilized by using Fixation/Permeabilization and Permeabilization Buffer (eBioscience, cat. 00-{5123-43), according to manufacturer's instructions. Permeabilized cells were then stained with fluorochrome-labeled antibodies for IFNγ and TNFα. Flow cytometry analysis was performed on a FACSCanto™ II (BD Biosciences). Antibodies used: IFNγ-APC, TNFα-BV421, CD4-PerCP, CD8-FITC, CD3-APC-H7, CD4-FITC, CD8-PerCP, and dead cells stain-FVS510 (all from BD Biosciences) according to manufacturer's instructions. For intracellular cytokine staining to detect cytokine production of ARG2-specific T cells in response to target cells, 5×10^5 ARG2 specific cells were incubated with 2.5×10^5 target cells for 5 hours with GolgiPlug™ added after the first hour.
The ARG2-specific T cell culture was established by initial stimulation of PMBCs from a prostate cancer patient with irradiated ARG2-1 loaded autologous mature dendritic cells. The following day IL-12 (20 U/ml) and IL-7 (40 U/ml) was added. PBMCs were restimulated every 8 days with ARG2-1 peptide loaded autologous DCs followed by addition of IL-2 (120 U/ml) the next day. ARG2-specific T cells were enriched using IFNy enrichment kit (MiltenyiBiotec) after 4 stimulations. Cells were expanded and ARG2-specific T cells were further enriched using CD4+ enrichment kit (MiltenyiBiotec).
For mRNA, DCs or cancer cells were transfected with ARG1-DC-LAMP mRNA, ARG2-DC-LAMP mRNA or control mRNA encoding eGFP using electroporation parameters as previously described. Briefly, cells were washed twice in Opti-MEM medium (Thermo Scientific) and adjusted to a final cell concentration of 9-12×10^6 cells/ml. 350 μl cell suspension was preincubated on ice for 5 minutes before addition of 10 μg mRNA. The cell suspension was then quickly transferred into a 2-mm (cancer cells) or 4-mm (DCs) gap electroporation cuvette and electroporated (ref: OM paper). After electroporation, cells were quickly transferred to a dish with pre-warmed medium and incubated in humidified atmosphere with 5% CO2 before use for different experimental analysis. mRNA transfected cells were rested for 1 hr before they were setup in ELISPOT assay or rested overnight before set up in intracellular cytokine staining assay. Electroporation efficiency was determined 24 hours post transfection by FACS analysis of the GFP transfected cells. […]

Sequence	recognition of peptide-pulsed cells by ARG2-specific T cells (MONO-MAC-1 cells)	recognition of peptide-pulsed cells by ARG2-specific T cells (OCI-AML2 cells)	recognition of peptide-pulsed cells by ARG2-specific T cells (THP-1 cells)	specificity of the ARG2-specific T cell culture to peptide
LQTRVHSILKKSVHSVAVIG (listed as Homo sapiens) [ARG2_1, polypeptide derived from human Arginase2, aa11-30]	effectively recognized	effectively recognized	effectively recognized	highly specific
SLRGSLSRLLQTRVHSILKKSVHSVAVIGAPFS (listed as Homo sapiens) [A2L2, long ARG2 peptide, aa2-34, 33-mer]	–	–	–	highly specific
